Data on 16 compounds can be found in patent US10208037B2, “Toll-like receptor-7 and -8 modulatory 1H imidazoquinoline derived compounds” (The University of Kansas, priority 2011, dated 2019).

The structures appear in SMILES notation.

For one test, the target named is T1, TLR7 (Homo sapiens, UniProt Q9NYK1).
T1 construct: expressed in transfected cells; host or cells: HEK293 (HEK-Blue-7 cells)
T1 sequence (Q9NYK1 27-1049): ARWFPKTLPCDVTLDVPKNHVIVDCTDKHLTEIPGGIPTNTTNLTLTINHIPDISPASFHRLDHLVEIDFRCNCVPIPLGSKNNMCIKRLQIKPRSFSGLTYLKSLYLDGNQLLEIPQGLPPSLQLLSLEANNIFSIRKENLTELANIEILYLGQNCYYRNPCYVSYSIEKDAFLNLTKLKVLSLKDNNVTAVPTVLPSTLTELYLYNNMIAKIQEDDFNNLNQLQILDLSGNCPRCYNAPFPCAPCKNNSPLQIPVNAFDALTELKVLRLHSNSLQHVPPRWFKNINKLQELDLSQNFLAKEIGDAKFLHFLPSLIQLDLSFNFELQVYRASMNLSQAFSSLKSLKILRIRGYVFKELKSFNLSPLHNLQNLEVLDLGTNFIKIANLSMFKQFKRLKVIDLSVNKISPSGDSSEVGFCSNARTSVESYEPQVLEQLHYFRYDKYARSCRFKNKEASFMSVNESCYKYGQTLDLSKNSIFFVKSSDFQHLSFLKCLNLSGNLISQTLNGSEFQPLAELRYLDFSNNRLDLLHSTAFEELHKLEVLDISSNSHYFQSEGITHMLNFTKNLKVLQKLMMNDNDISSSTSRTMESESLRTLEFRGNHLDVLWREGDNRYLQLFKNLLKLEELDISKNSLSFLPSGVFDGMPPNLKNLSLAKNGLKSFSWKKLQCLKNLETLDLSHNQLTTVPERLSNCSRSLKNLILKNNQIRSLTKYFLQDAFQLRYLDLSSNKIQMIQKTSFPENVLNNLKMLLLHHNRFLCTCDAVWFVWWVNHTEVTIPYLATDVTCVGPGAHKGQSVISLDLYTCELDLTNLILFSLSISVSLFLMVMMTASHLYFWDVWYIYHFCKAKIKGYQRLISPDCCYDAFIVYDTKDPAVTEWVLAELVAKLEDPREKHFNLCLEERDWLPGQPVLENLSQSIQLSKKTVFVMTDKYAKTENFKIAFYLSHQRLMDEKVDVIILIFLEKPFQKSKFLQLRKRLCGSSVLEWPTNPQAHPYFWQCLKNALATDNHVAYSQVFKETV
The test is described as follows: TLR7 reporter gene assay (NF-κB induction, HEK-Blue-7 cells), agonism. It is filed as cell-based.
Conditions: not given
An excerpt:
NF-κB induction: The induction of NF-κB was quantified using HEK-Blue-7 cells and HEK-Blue-8 cells as previously described by us.^8,24 HEK293 cells were stably transfected with human TLR7 (or human TLR8), MD2, and secreted alkaline phosphatase (sAP), and were maintained in HEK-Blue™ Selection medium containing zeocin and normocin. Stable expression of secreted alkaline phosphatase (sAP) under control of NF-κB/AP-1 promoters is inducible by the TLR7 (or TLR8) agonists, and extracellular sAP in the supernatant is proportional to NF-κB induction. HEK-Blue cells were incubated at a density of […] in a volume of 80 μL/well, in 384-well, flat-bottomed, cell culture-treated microtiter plates until confluency was achieved, and subsequently graded concentrations of stimuli. sAP was assayed spectrophotometrically using an alkaline phosphatase-specific chromogen (present in HEK-detection medium as supplied by the vendor) at 620 nm.
The induction of NF-κB was quantified using HEK-Blue-3, HEK-Blue-7 and HEK-Blue-8 cells as previously described by us.^8,24,51 HEK293 cells were stably transfected with human TLR3 (or human TLR7 or human TLR8), MD2, and secreted alkaline phosphatase (sAP), and were maintained in HEK-Blue™ Selection medium containing zeocin and normocin. Stable expression of secreted alkaline phosphatase (sAP) under control of NF-κB/AP-1 promoters is inducible by the TLR3 (or TLR7 or TLR8) agonists, and extracellular sAP in the supernatant is proportional to NF-κB induction. HEK-Blue cells were incubated at a density of ˜10^5 cells/ml in a volume of 80 μl/well, in 384-well, flat-bottomed, cell culture-treated microtiter plates until confluency was achieved, and subsequently graded concentrations of stimuli. sAP was assayed spectrophotometrically using an alkaline phosphatase-specific chromogen (present in HEK-detection medium as supplied by the vendor) at 620 nm.
With `CCCCc1nc2c(N)nc3ccccc3c2n1Cc1cccc2ccccc12` [Compound 6a], the “TLR7-agonistic activity (in words)” value was “inactive”. In the case of `CCCCc1nc2c(N)nc3ccccc3c2n1Cc1ccc(CNC(=S)Nc2cccc(-c3c4ccc(=O)cc-4oc4cc(O)ccc34)c2C(=O)O)cc1` [Compound 26, 2-(3-(4-((4-Amino-2-butyl-1H-imidazo [4,5-c]quinolin-1-yl)methyl)benzyl)thioureido)-6-(6-hydroxy-3-oxo-3H-xanthen-9-yl)benzoic Acid], the “TLR7-agonistic activity (in words)” value is listed as “retain TLR7 agonistic activity”. The same measure, in the same setting: for `CCCCc1nc2c(N)nc3ccccc3c2n1Cc1ccc(CNC(=S)Nc2ccc(-c3c4ccc(=[N+](CC)CC)cc-4oc4cc(N(CC)CC)ccc34)c(C(=O)O)c2)cc1` [Compound 27, N-(9-(4-(3-(4-((4-amino-2-butyl-1H-imidazo[4,5-c]quinolin-1-yl)methyl)benzyl)thioureido)-2-carboxyphenyl)-6-(diethylamino)-3H-xanthen-3-ylidene)-N-ethylethanaminium] the value was “retain TLR7 agonistic activity”.

Still in this test, the particulars now being: Table 1; ND = not detected; read-out: TLR7 Agonism.
Turning to `CCCCc1nc2c(NCCCCNc3nc4ccccc4c4c3nc(CCCC)n4Cc3ccccc3)nc3ccccc3c2n1Cc1ccccc1` [Compound 51a, N^1,N^4-bis(1-benzyl-2-butyl-1H-imidazo[4,5-c]quinolin-4-yl)butane-1,4-diamine], the EC50 amounted to 2050 nM.

`CCCCc1nc2c(NCCCCCCCCNc3nc4ccccc4c4c3nc(CCCC)n4Cc3ccccc3)nc3ccccc3c2n1Cc1ccccc1` [Compound 51b, N^1,N-bis(1-benzyl-2-butyl-1H-imidazo[4,5-c]quinolin-4-yl)octane-1,8-diamine]: the EC50 stood at 560 nM. Same read-out and setting: as for `CCCCc1nc2c(NCCCCCCCCCCNc3nc4ccccc4c4c3nc(CCCC)n4Cc3ccccc3)nc3ccccc3c2n1Cc1ccccc1` [Compound 51c, N^1,N^10-bis(1-benzyl-2-butyl-1H-imidazo[4,5-c]quinolin-4-yl)decane-1,10-diamine], the figure is 3000 nM. Still for that read-out and setting: as for `CCCCc1nc2c(NCCCCCCCCCCCCNc3nc4ccccc4c4c3nc(CCCC)n4Cc3ccccc3)nc3ccccc3c2n1Cc1ccccc1` [Compound 51d, N^1,N^12-bis(1-benzyl-2-butyl-1H-imidazo[4,5-c]quinolin-4-yl)dodecane-1,12-diamine], the figure is 1420 nM; as for `CCCCc1nc2c(N)nc3ccccc3c2n1Cc1ccc(CNC(=O)CCCCC(=O)NCc2ccc(Cn3c(CCCC)nc4c(N)nc5ccccc5c43)cc2)cc1` [Compound 52a, N^1,N^6-bis(4-((4-amino-2-butyl-1H-imidazo[4,5-c]quinolin-1-yl)methyl)benzyl)adipamide], 110 nM; as for `CCCCc1nc2c(N)nc3ccccc3c2n1Cc1ccc(CNC(=O)CCCCCCC(=O)NCc2ccc(Cn3c(CCCC)nc4c(N)nc5ccccc5c43)cc2)cc1` [Compound 52b, N^1,N-bis(4-((4-amino-2-butyl-1H-imidazo[4,5-c]quinolin-1-yl)methyl)benzyl)octanediamide], 240 nM. In the case of `CCCCc1nc2c(N)nc3ccc([N+](=O)[O-])cc3c2n1Cc1ccc(CN)cc1` [Compound 53a, 1-(4-(aminomethyl)benzyl)-2-butyl-8-nitro-1H-imidazo[4,5-c]quinolin-4-amine], the EC50 worked out at 560 nM. On the same count and under the same terms, as for `CCCCc1nc2c(N)nc3ccc(N)cc3c2n1Cc1ccc(CN)cc1` [Compound 54a, 1-(4-(aminomethyl)benzyl)-2-butyl-1H-imidazo[4,5-c]quinoline-4,8-diamine], the figure is 450 nM; as for `CCCCc1nc2c(N)nc3ccc(NC(=O)CCCCC(=O)Nc4ccc5nc(N)c6nc(CCCC)n(Cc7ccc(CN)cc7)c6c5c4)cc3c2n1Cc1ccc(CN)cc1` [Compound 55a, N^1,N^6-bis(4-amino-1-(4-(aminomethyl)benzyl)-2-butyl-1H-imidazo[4,5-c]quinolin-8-yl) adipamide], 7240 nM. `CCCCc1nc2c(N)nc3ccc(NC(=O)CCCCCCC(=O)Nc4ccc5nc(N)c6nc(CCCC)n(Cc7ccc(CN)cc7)c6c5c4)cc3c2n1Cc1ccc(CN)cc1` [Compound 55b, N^1,N^8-bis(4-amino-1-(4-(aminomethyl)benzyl)-2-butyl-1H-imidazo[4,5-c]quinolin-8-yl)octanediamide]: the EC50 amounted to 4020 nM.

The test is the same for the next values; noted with them: read-out: EC50 (agonistic activity).
For the compound `CCCCc1nc2c(N)nc3ccccc3c2n1Cc1ccc(-c2ccccc2)cc1` [Compound 6b, 1-(Biphenyl-4-ylmethyl)-2-butyl-1H-imidazo[4,5-c]quinolin-4-amine], the EC50 was 396 nM. Still for that read-out and setting: as for `CCCCc1nc2c(N)nc3ccccc3c2n1Cc1ccc(CNC(=S)NCC(=O)NCC(=O)NCC(=O)OC)cc1` [Compound 29, Methyl 1-(4-((4-amino-2-butyl-1H-imidazo[4,5-c]quinolin-1-yl)methyl)phenyl)-6,9-dioxo-3-thioxo-2,4,7,10-tetraazadodecan-12-oate], the figure is 269 nM; as for `CCCCc1nc2c(N)nc3ccccc3c2n1Cc1ccc(CNC(=O)CCN2C(=O)CC(SC[C@@H](NC(=O)CC[C@@H](N)C(=O)OC)C(=O)NCC(=O)OC)C2=O)cc1` (stereo partly drawn) [Compound 30b, (2R)-methyl 2-amino-5-((2S)-3-(1-(3-(4-((4-amino-2-butyl-1H-imidazo[4,5-c]quinolin-1-yl)methyl)benzylamino)-3-oxopropyl)-2,5-dioxopyrrolidin-3-ylthio)-1-(2-methoxy-2-oxoethylamino)-1-oxopropan-2-ylamino)-5-oxopentanoate], 2200 nM.
